Results reported in patent US8765696B2, “Steroid compound” (Mikasa Seiyaku Co., Ltd., priority 2009, dated 2014).

Assays:
[1] = tested on: croton oil-induced ear edema; assay: Test for croton oil-induced ear edema; type: in vivo; settings: rat right auricle; for Edema suppression rate of 6 hours after administration of inflammatory agent (%): 6 hours after croton oil; for Edema suppression rate of 24 hours after administration of inflammatory agent (%): 24 hours after croton oil
Procedure: Croton oil ear edema test, which is a representative model for dermatitis, was used to study the pharmacological effect of compounds of the present invention.
Five individuals/group of rats of 5 weeks old (body weight, 128 g to 169 g) were used. One day before the test, the thickness of the right ear was measured under ether anesthesia using a dial thickness gauge, to obtain the Pre value. On the day of the test, 20 mg each of the ointments to be tested, which had been prepared to have various concentrations in white vaseline, was applied to the right auricle (both sides) of each rat, and a collar was then placed around the neck of the rat to prevent contacting/scratching and removal of the drug. Two hours later, the ointment was wiped off under ether anesthesia using absorbent cotton, and 0.1 mL of 5% croton oil (croton oil:ether:pyridine:distilled water=1:14:4:1) solution was applied dropwise to the both sides of the auricle while drying the solution with a drier (air blow), to induce ear edema. Six and 24 hours after the induction of the edema, the thickness of the right auricle was measured under ether anesthesia, and the edema rate and the edema suppression rate were calculated according to the equations below, which suppression rate is shown in Table 1.

[2] = tested on: croton oil-induced granuloma; assay: Test for croton oil-induced granuloma (air pouch exudate and thymus weight); type: in vivo, rat; settings: male Wistar rats, 7 days, vs control group
Source text: Using the croton oil granuloma test, which is a test method with which the local anti-inflammatory action and the systemic side effect can be evaluated at the same time, the pharmacological effect and the systemic side effect of the compounds of the present invention were studied.
Five individuals/group of male Wistar rats having body weights of 180 to 225 g were used, and hair on the back of these rats was shaved with a clipper under ether anesthesia, followed by preparing an air pouch by subcutaneous injection of 20 mL of air at the back. On the next day, 1 mL of cottonseed oil containing 1% croton oil was administered to the pouch. Each test drug was suspended in the croton oil-containing cottonseed oil before administration. Seven days later, blood was collected from abdominal aorta under ether anesthesia, and exudate in the pouch was collected and its fluid amount was measured. Further, the thymus was removed, and its weight was measured. The weight of the exudate and the weight of the thymus are shown in Table 2 as the suppression rate and the atrophy rate (%) with respect to those of the control group.

CC(=O)OC1C(C)OC(OCC(=O)C23OC(C4CCCCC4)OC2CC2C4CCC5=CC(=O)C=CC5(C)C4C(O)CC23C)C(OC(C)=O)C1OC(C)=O (stereo not drawn) [Compound 10]
Edema suppression rate of 6 hours after administration of inflammatory agent (%) ([1]; ointment concentration 0.001%): 42.4% | Edema suppression rate of 24 hours after administration of inflammatory agent (%) ([1]; ointment concentration 0.001%): 45.8% | Edema suppression rate of 6 hours after administration of inflammatory agent (%) ([1]; ointment concentration 0.01%): 55.9% | Edema suppression rate of 24 hours after administration of inflammatory agent (%) ([1]; ointment concentration 0.01%): 33.2% | Edema suppression rate of 6 hours after administration of inflammatory agent (%) ([1]; ointment concentration 0.1%): 38.9% | Edema suppression rate of 24 hours after administration of inflammatory agent (%) ([1]; ointment concentration 0.1%): 39.9% | Rate of exudates suppression (pharmacological effects) ([2]; dose 0.001 mg/rat into pouch): 4.6% | Rate of thymus atrophy (systemic side effects) ([2]; dose 0.001 mg/rat into pouch): 0.0% | Rate of exudates suppression (pharmacological effects) ([2]; dose 0.01 mg/rat into pouch): 0.0% | Rate of thymus atrophy (systemic side effects) ([2]; dose 0.01 mg/rat into pouch): 0.0% | Rate of exudates suppression (pharmacological effects) ([2]; dose 0.1 mg/rat into pouch): 4.8% | Rate of thymus atrophy (systemic side effects) ([2]; dose 0.1 mg/rat into pouch): 0.0% | Rate of exudates suppression (pharmacological effects) ([2]; dose 1 mg/rat into pouch): 5.3% | Rate of thymus atrophy (systemic side effects) ([2]; dose 1 mg/rat into pouch): 0.0%

CC(=O)NC1C(OCC(=O)C23OC(C4CCCCC4)OC2CC2C4CCC5=CC(=O)C=CC5(C)C4C(O)CC23C)OC(COC(C)=O)C(OC(C)=O)C1OC(C)=O (stereo not drawn) [Compound 11]
Edema suppression rate of 6 hours after administration of inflammatory agent (%) ([1]; ointment concentration 0.001%): 24.5% | Edema suppression rate of 24 hours after administration of inflammatory agent (%) ([1]; ointment concentration 0.001%): 39.4% | Edema suppression rate of 6 hours after administration of inflammatory agent (%) ([1]; ointment concentration 0.01%): 19.0% | Edema suppression rate of 24 hours after administration of inflammatory agent (%) ([1]; ointment concentration 0.01%): 26.5% | Edema suppression rate of 6 hours after administration of inflammatory agent (%) ([1]; ointment concentration 0.1%): 33.6% | Edema suppression rate of 24 hours after administration of inflammatory agent (%) ([1]; ointment concentration 0.1%): 48.0% | Rate of exudates suppression (pharmacological effects) ([2]; dose 0.001 mg/rat into pouch): 13.1% | Rate of thymus atrophy (systemic side effects) ([2]; dose 0.001 mg/rat into pouch): 3.9% | Rate of exudates suppression (pharmacological effects) ([2]; dose 0.01 mg/rat into pouch): 21.2% | Rate of thymus atrophy (systemic side effects) ([2]; dose 0.01 mg/rat into pouch): 7.9% | Rate of exudates suppression (pharmacological effects) ([2]; dose 0.1 mg/rat into pouch): 66.0% | Rate of thymus atrophy (systemic side effects) ([2]; dose 0.1 mg/rat into pouch): 10.8% | Rate of exudates suppression (pharmacological effects) ([2]; dose 1 mg/rat into pouch): 93.4% | Rate of thymus atrophy (systemic side effects) ([2]; dose 1 mg/rat into pouch): 16.0%

CC(=O)NC1C(OCC(=O)C23OC(C4CCCCC4)OC2CC2C4CCC5=CC(=O)C=CC5(C)C4C(O)CC23C)OC(COC(C)=O)C(OC(C)=O)C1OC(C)=O (stereo not drawn) [Compound 12]
Edema suppression rate of 6 hours after administration of inflammatory agent (%) ([1]; ointment concentration 0.001%): 29.9% | Edema suppression rate of 24 hours after administration of inflammatory agent (%) ([1]; ointment concentration 0.001%): 36.6% | Edema suppression rate of 6 hours after administration of inflammatory agent (%) ([1]; ointment concentration 0.01%): 16.7% | Edema suppression rate of 24 hours after administration of inflammatory agent (%) ([1]; ointment concentration 0.01%): 29.6% | Edema suppression rate of 6 hours after administration of inflammatory agent (%) ([1]; ointment concentration 0.1%): 12.4% | Edema suppression rate of 24 hours after administration of inflammatory agent (%) ([1]; ointment concentration 0.1%): 9.1% | Rate of exudates suppression (pharmacological effects) ([2]; dose 0.001 mg/rat into pouch): 3.6% | Rate of thymus atrophy (systemic side effects) ([2]; dose 0.001 mg/rat into pouch): 0.0% | Rate of exudates suppression (pharmacological effects) ([2]; dose 0.01 mg/rat into pouch): 0.0% | Rate of thymus atrophy (systemic side effects) ([2]; dose 0.01 mg/rat into pouch): 5.8% | Rate of exudates suppression (pharmacological effects) ([2]; dose 0.1 mg/rat into pouch): 0.0% | Rate of thymus atrophy (systemic side effects) ([2]; dose 0.1 mg/rat into pouch): 17.7% | Rate of exudates suppression (pharmacological effects) ([2]; dose 1 mg/rat into pouch): 76.5% | Rate of thymus atrophy (systemic side effects) ([2]; dose 1 mg/rat into pouch): 8.0%
